In PMC11984905, “Chiral Switch of Gadopiclenol: New Standards in MRI Probes” (Advanced Science, 2025):

Assay: Stability and protonation constants of Ca(II)-complexes (pH-potentiometry)
Assay type: physicochemical
Conditions: 0.15 M NaCl, 25 °C
Procedure: The protonation constants of ligands, the stability and protonation constants of Ca(II)‐ and Zn(II)‐complexes formed with rac‐L1, ent‐L1, rac‐L2, and ent‐L2 ligands were determined by pH‐potentiometric titration. The metal‐to‐ligand concentration ratio was 1:1 (the concentration of the ligand was generally 0.002 M). The protonation constants of the Cu(II)‐ and Gd(III)‐complexes were determined using pH‐potentiometry by titrating the pre‐prepared complexes from pH 2.0 to 12.0 with 0.2 M NaOH. The stability constants of the Gd(III)‐complexes with rac‐L1 and ent‐L1 ligands were determined by the “out‐of‐cell” technique because of their slow formation reaction. The pH range of the complexation equilibria and the time needed to reach the equilibria were determined by relaxometry. Eight–eight Gd(III) – rac‐L1 and Gd(III) – ent‐L1 samples were prepared, with pH values in the range of 1.7–3.0 at equilibrium ([Gd^3+] = [L] = 0.002 M). The samples were kept at 25 °C for 6 weeks to reach equilibrium. For the calculation of the stability constants of the [Gd(rac‐L1)]^3− and [Gd(ent‐L1)]^3− complexes, besides the protonation constants of ligands and the Gd(III) complexes, the stability constants of the di‐protonated [^*Gd(H2 rac‐L1)]^− and [^*Gd(H2 […])]^− out‐of‐cage complexes (considered as intermediates) was also used as fixed values, which were calculated from the pH‐potentiometric titration curve of the Gd(III) – rac‐L1 and Gd(III) – ent‐L1 system obtained in the pH range of 1.7–7.0.
For the pH measurements and titrations, the Metrohm 888 Titrando titration workstation Metrohm‐6.0234.110 combined electrode was used. Equilibrium measurements were carried out at a constant ionic strength (0.15 M NaCl) in 6 mL samples at 25 °C. The solutions were stirred, and N2 was bubbled through them. The titrations were made in the pH range 1.7–12.0. KH‐Phthalate (pH 4.005) and borax (pH 9.177) buffers were used to calibrate the pH meter. For the calculation of [H^+] from the measured pH values, the method proposed by Irving et al. was used as follows.^[ [46] ^] A 0.01M HCl solution was titrated with standardized NaOH solution at 0.15 M NaCl ionic strength. The differences (A) between the measured (pHread) and calculated pH (‐log[H^+]) values were used to obtain the equilibrium H^+ concentration from the pH values measured in the titration experiments (A = 0.02). For the equilibrium calculations, the stoichiometric water ionic product (pK w) was also needed in order to calculate [OH^−] values under basic conditions. The VNaOH – pHread data pairs of the HCl – NaOH titration obtained in the pH range 10.5–12.0 were used to calculate the pK w value (pK w = 13.83).
The stability and protonation constants of Ca(II)-, Zn(II)-, Cu(II)- and Gd(III)-complexes of rac-L1, ent-L1, rac-L2 and ent-L2, defined by Equations (S2) and (S3), were investigated by pH-potentiometry, spectrophotometry and ^1H NMR relaxometry at 25 °C in 0.15 M NaCl solution.
where i=0, 1, 2,…5. The KML and KMHiL values characterizing the formation of Ca(II)-, Zn(II)-, Cu(II)- and Gd(III)-complexes with rac-L1, ent-L1, rac-L2 and ent-L2 ligands have been calculated from the pH-potentiometric titration data obtained at 1:1 metal to ligand concentration ratios. In calculating the equilibrium constants, the best fitting of the mL NaOH – pH data has been obtained by assuming the formation of ML, MHL, MH2L, MH3L, MH4L, MH5L and MLH-1 species. The formation of the deprotonated [GdLH-1]^- complexes with rac-L2 and ent-L2 ligands takes place at pH>9.0, as indicated by the base consumption in the titration curves. This deprotonation of the Gd(III)-complexes occurs on the inner-sphere water molecule.

| logK CaL | logKCaH2L | logKCaH3L | logKCaH4L | logKCaHL | SMILES |
| --- | --- | --- | --- | --- | --- |
| 10.10 (1) | 5.34 (2) | 4.83 (4) | 4.45 (2) | 5.72 (1) | O=C(O)CCC(C(=O)O)N1CCN(C(CCC(=O)O)C(=O)O)Cc2cccc(n2)CN(C(CCC(=O)O)C(=O)O)CC1 (racemic) [rac‐L1, 2,2’,2’’-[3,6,9,15-tetraazabicyclo[9.3.1]pentadeca-1(15),11,13-triene-3,6,9-triyl]tripentanedioic acid] |
| 7.84 (2) | – | – | – | 4.86 (9) | O=C(CCC(C(=O)O)N1CCN(C(CCC(=O)NCC(O)CO)C(=O)O)Cc2cccc(n2)CN(C(CCC(=O)NCC(O)CO)C(=O)O)CC1)NCC(O)CO (racemic) [rac‐L2] |
| 11.03 (1) | 5.01 (2) | 4.74 (2) | 4.24 (3) | 5.59 (2) | O=C(O)CCC(C(=O)O)N1CCN(C(CCC(=O)O)C(=O)O)Cc2cccc(n2)CN(C(CCC(=O)O)C(=O)O)CC1 (stereo not drawn) [ent‐L1] |
| 10.26 (1) | – | – | – | 4.16 (2) | O=C(CCC(C(=O)O)N1CCN(C(CCC(=O)NCC(O)CO)C(=O)O)Cc2cccc(n2)CN(C(CCC(=O)NCC(O)CO)C(=O)O)CC1)NCC(O)CO (stereo not drawn) [ent‐L2] |
